{"source": "patent US20260083704A1", "about": "“LXR MODULATORS WITH BICYCLIC CORE MOIETY FOR TREATING DYSLIPIDEMIAS” (OrsoBio, Inc., priority 2022, published 2026)", "key": {"[1]": {"test_system": "human primary Upcyte hepatocytes", "assay": "Lipid accumulation in human primary Upcyte hepatocytes (Bodipy staining)", "type": "cell-based", "conditions": "Hepatocyte, 120 h, glucose 25 mM and palmitate, 5 days", "experimental": "Inhibition of LXR activity in hepatocytes is hypothesized to reduce intracellular TG accumulation via inhibition of DNL. The effects of Compound 21/3 on lipid accumulation in human primary Upcyte® hepatocytes were evaluated. Briefly, human primary Upcyte hepatocytes were cultivated in media containing high concentrations of glucose (25 mM) and palmitate ([…]) for 5 days in the presence or absence of Compound 21/3, and intracellular lipids were measured by Bodipy™ staining. […] Data are shown as mean±SD. n=2 wells per treatment; N=8 experiments."}, "healthy subjects": {"test_system": "healthy subjects", "assay": "Phase 1 study, SAD cohorts: safety and tolerability", "type": "in vivo, human", "conditions": "range over dose groups", "experimental": "A double-blind, placebo-controlled, single- and multiple-ascending dose FIH Phase 1 study to evaluate the safety, tolerability, PK, and PD of Compound 21/3 in healthy adult subjects was performed. A total of up to 150 subjects were enrolled, including 100 subjects in Parts A and B, and up to 50 subjects in adaptive cohorts in Part C. Within each cohort, 10 subjects were randomized, including 8 subjects randomized to Compound 21/3 and 2 subjects to PTM (placebo-to-match). In single-dose cohorts in Parts A and in any Part C cohort evaluating a higher total daily dose than previously evaluated, safety and tolerability data collected through Day 2 from two sentinel subjects, one randomized to Compound 21/3 and one to PTM, were evaluated prior to dosing of the remaining subjects in each cohort.\nAn approximately even distribution of healthy male and non-pregnant, non-lactating female subjects 18 to 55 years of age, inclusive, were to be enrolled in the study. There were no significant medical conditions by history, physical examination, or laboratory evaluation. Subjects were not allowed to participate in more than one cohort of the study. Within each MAD cohort, attempts were made to enrich for >3 subjects with elevated TG and/or LDL-C. Following the completion of Screening and admission assessments, eligible subjects were to be enrolled on Day −1. […]"}, "DIO mice": {"test_system": "DIO mice", "assay": "Two-step hyperinsulinemic-euglycemic clamp in DIO mice", "type": "in vivo", "conditions": "5 mg/kg once daily oral", "description": "Data are shown as mean±SD. N=5-11 animals per group. *p≤0.05, **p≤0.01, ***p≤0.001, ****p≤0.0001 vs. vehicle, unless otherwise indicated; ^#p≤0.05 pioglitazone vs. vehicle. Repeated measures Two-way ANOVA with Dunnett's multiple comparisons test (FIG. 7A, FIG. 7D), Two-way ANOVA with Dunnett's multiple comparisons test (FIG. 7B, FIG. 7C). EDL=extensor digitorum longus, GIR=glucose infusion rate, HGP=hepatic glucose production, iWAT=inguinal white adipose tissue.\nThe effects of chronic dosing of Compound 21/3 and Compound pre-6/3 were evaluated in DIO mice and HFD-fed ZDF rats, respectively. Briefly, C57BL/6 mice were fed a HFD for 16 weeks prior to treatment with Compound pre-6/3 (5 mg/kg) or pioglitazone (30 mg/kg; positive control) once daily by oral gavage. After four weeks of treatment, a two-step hyperinsulinemic-euglycemic clamp along with the infusion of radiotracers to monitor glucose disposal and hepatic glucose production was performed. […] These changes were associated with a reduction in hepatic glucose production in the Compound pre-6/3-treated mice, more evident during the 8 mU/kg/min insulin infusion (FIG. 7B)."}}}
{"smiles": "N#Cc1cccc(C#N)c1-c1c(-c2cccc(-c3ccc(C(=O)NCC(=O)O)cc3Cl)c2)n(S(=O)(=O)c2ccc(C(F)F)cc2)c2ccc(F)cc12", "note": "[Compound 21/3]", "values": [{"measurement": "EC50", "setting": "[1]", "result": "289 ± 34", "unit": "nM"}, {"measurement": "proportion of subjects with adverse events (AEs)", "setting": "healthy subjects", "result": "13-50%"}]}
{"smiles": "N#Cc1cccc(C#N)c1-c1c(-c2cccc(-c3ccc(C(=O)O)cc3Cl)c2)n(S(=O)(=O)c2ccc(C(F)F)cc2)c2ccc(F)cc12", "note": "[pre-6/3]", "values": [{"measurement": "glucose utilization by muscle versus vehicle", "setting": "DIO mice; end of the clamp", "result": "significantly higher"}, {"measurement": "glucose infusion rate versus vehicle", "setting": "DIO mice; four weeks, insulin infusion 8 and 18 mU/kg/min", "result": "significantly higher"}, {"measurement": "hepatic glucose production", "setting": "DIO mice; four weeks, more evident at 8 mU/kg/min", "result": "reduction"}]}
